What was measured:
Assay type in all cases: biochemical, influenza A(H7N2) virus
[1] = tested on: NA of the H7N2 viruses
[2] = tested on: NA enzymatic activity of A/chicken/NY/99
[3] = tested on: NA enzymatic activity of A/feline/NY/16

[H]/N=C(\N)N[C@H]1C=C(C(=O)O)O[C@@H]([C@H](OC)[C@H](O)CO)[C@@H]1NC(C)=O [laninamivir]
Susceptibility of the H7N2 viruses to NA inhibitors [1]: susceptible | Sensitivity to NA inhibitors (50% inhibitory concentration (IC50) of the NA enzymatic activity) [2]: sensitive | Sensitivity to NA inhibitors (50% inhibitory concentration (IC50) of the NA enzymatic activity) [3]: sensitive

CCOC(=O)C1=C[C@@H](OC(CC)CC)[C@H](NC(C)=O)[C@@H](N)C1 [oseltamivir]
Susceptibility of the H7N2 viruses to NA inhibitors [1]: susceptible | Sensitivity to NA inhibitors (50% inhibitory concentration (IC50) of the NA enzymatic activity) [2]: sensitive | Sensitivity to NA inhibitors (50% inhibitory concentration (IC50) of the NA enzymatic activity) [3]: sensitive

CCC(CC)[C@H](NC(C)=O)[C@@H]1[C@H](O)[C@@H](C(=O)O)C[C@H]1N=C(N)N [peramivir]
Susceptibility of the H7N2 viruses to NA inhibitors [1]: susceptible

CC(=O)N[C@H]1[C@H]([C@H](O)[C@H](O)CO)OC(C(=O)O)=C[C@@H]1N=C(N)N [zanamivir]
Susceptibility of the H7N2 viruses to NA inhibitors [1]: susceptible | Sensitivity to NA inhibitors (50% inhibitory concentration (IC50) of the NA enzymatic activity) [2]: sensitive | Sensitivity to NA inhibitors (50% inhibitory concentration (IC50) of the NA enzymatic activity) [3]: sensitive

From US20180303928A1 (priority 2017, published 2018)
